In this assay the test system is HBV (2.2.15 cells). Put plainly: Antiviral activity in 2.2.15 cells: reduction of viral product accumulation (qPCR of lysates, HBsAg or HBeAg ELISA). In kind it is cell-based, hepatitis B virus (HBV). Particulars: Hepatitis B virus, 120 h, day 5 post treatment, 50% reduction of viral product accumulation in lysates or supernatants vs no drug controls, readout (qPCR, HBsAg, HBeAg) not specified. The method, then:
2.2.15 cells are passaged upon attaining confluency in DMEM/F12 media in the presence of 10% FBS, Penn/Strep, and 250 ug/mL G418. Novel compounds are 5 fold serially diluted in DMSO and added to 96 well plates containing 35,000 cells/well at a 1:200 dilution so that the final concentration of DMSO is 0.5%. On day 5, post treatment cell lysates and supernatants are harvested for analysis.
Cells are lysed using Agilent Sidestep Lysis buffer, diluted 1:100 and quantified via quantitative real time PCR. Commercially available ELISA kits are used to quantitate the viral proteins HBsAg (Alpco) or HBeAg (US Biological) by following the manufacturer's recommended protocol after diluting samples to match the linear range of their respective assays. Irrespective of readout, compound concentrations that reduce viral product accumulation in the cell lysates or supernatants by 50% relative to no drug controls (EC50) are reported; EC50 ranges are as follows: A<0.1 μM; B 0.1-1 μM; C>1 μM.
(In general: Real-time PCR tracks product formation cycle by cycle.)

pEC50: −log10 of the molar value. Bounds are passed on as bounds.

Turning to `COCCCOc1cc2c(cc1-c1ccccc1OC(F)(F)F)-c1cc(=O)c(C(=O)O)cn1[C@H](C(C)(C)C)C2` [Example 58, (S)-6-(tert-butyl)-9-(3-methoxypropoxy)-2-oxo-10-(2-(trifluoromethoxy)phenyl)-6,7-dihydro-2H-pyrido[2,1-a]isoquinoline-3-carboxylic Acid], the pEC50 is less than 6.00. For `Cn1nccc1-c1cc2c(c3c1OCC3)C[C@@H](C(C)(C)C)n1cc(C(=O)O)c(=O)cc1-2` [Example 68, (S)-5-(tert-butyl)-12-(1-methyl-1H-pyrazol-5-yl)-9-oxo-2,3,4,9-tetrahydro-5H-furo[3,2-f]pyrido[2,1-a]isoquinoline-8-carboxylic Acid] the value was greater than 7.00; for `Cn1cc(-c2cc3c(c4c2OCC4)C[C@@H](C(C)(C)C)n2cc(C(=O)O)c(=O)cc2-3)cn1` [Example 69, (S)-5-(tert-butyl)-12-(1-methyl-1H-pyrazol-4-yl)-9-oxo-2,3,4,9-tetrahydro-5H-furo[3,2-f]pyrido[2,1-a]isoquinoline-8-carboxylic Acid], greater than 7.00. The figure for `Cn1ccc(-c2cc3c(c4c2OCC4)C[C@@H](C(C)(C)C)n2cc(C(=O)O)c(=O)cc2-3)n1` [Example 70, (S)-5-(tert-butyl)-12-(1-methyl-1H-pyrazol-3-yl)-9-oxo-2,3,4,9-tetrahydro-5H-furo[3,2-f]pyrido[2,1-a]isoquinoline-8-carboxylic Acid] is greater than 7.00. For `CC(C)(C)[C@@H]1Cc2c(cc(-c3ccco3)c3c2CCO3)-c2cc(=O)c(C(=O)O)cn21` [Example 72, (S)-5-(tert-butyl)-12-(furan-2-yl)-9-oxo-2,3,4,9-tetrahydro-5H-furo[3,2-f]pyrido[2,1-a]isoquinoline-8-carboxylic Acid] the value was greater than 7.00; for `CC(C)(C)[C@@H]1Cc2c(cc(-c3cnsc3)c3c2CCO3)-c2cc(=O)c(C(=O)O)cn21` [Example 73, (S)-5-(tert-butyl)-12-(isothiazol-4-yl)-9-oxo-2,3,4,9-tetrahydro-5H-furo[3,2-f]pyrido[2,1-a]isoquinoline-8-carboxylic Acid], greater than 7.00; for `CC(C)(C)[C@@H]1Cc2c(cc(-c3ccncc3)c3c2CCO3)-c2cc(=O)c(C(=O)O)cn21` [Example 74, (S)-5-(tert-butyl)-9-oxo-12-(pyridin-4-yl)-2,3,4,9-tetrahydro-5H-furo[3,2-f]pyrido[2,1-a]isoquinoline-8-carboxylic Acid], greater than 7.00.

In the case of `CC(C)(C)[C@@H]1Cc2c(cc(-c3cccnc3)c3c2CCO3)-c2cc(=O)c(C(=O)O)cn21` [Example 75, (S)-5-(tert-butyl)-9-oxo-12-(pyridin-3-yl)-2,3,4,9-tetrahydro-5H-furo[3,2-f]pyrido[2,1-a]isoquinoline-8-carboxylic Acid], the negative-log EC50 (pEC50) was greater than 7.00. For `CC(C)(C)[C@@H]1Cc2c(cc(-c3ccccc3Cl)c3c2CCO3)-c2cc(=O)c(C(=O)O)cn21` [Example 76, (S)-5-(tert-butyl)-12-(2-chlorophenyl)-9-oxo-2,3,4,9-tetrahydro-5H-furo[3,2-f]pyrido[2,1-a]isoquinoline-8-carboxylic Acid] the value was greater than 7.00; for `COc1ccc(-c2cc3c(c4c2OCC4)C[C@@H](C(C)(C)C)n2cc(C(=O)O)c(=O)cc2-3)cc1` [Example 78, (S)-5-(tert-butyl)-12-(4-methoxyphenyl)-9-oxo-2,3,4,9-tetrahydro-5H-furo[3,2-f]pyrido[2,1-a]isoquinoline-8-carboxylic Acid], greater than 7.00.

Consider `CC(C)(C)[C@@H]1Cc2c(cc(-c3ccc(C(F)(F)F)cc3)c3c2CCO3)-c2cc(=O)c(C(=O)O)cn21` [Example 80, (S)-5-(tert-butyl)-9-oxo-12-(4-(trifluoromethyl)phenyl)-2,3,4,9-tetrahydro-5H-furo[3,2-f]pyrido[2,1-a]isoquinoline-8-carboxylic Acid], for which the pEC50 was less than 6.00. For `CC(C)(C)[C@@H]1Cc2c(cc(-c3cccc(C(F)(F)F)c3)c3c2CCO3)-c2cc(=O)c(C(=O)O)cn21` [Example 81, (S)-5-(tert-butyl)-9-oxo-12-(3-(trifluoromethyl)phenyl)-2,3,4,9-tetrahydro-5H-furo[3,2-f]pyrido[2,1-a]isoquinoline-8-carboxylic Acid] the value was less than 6.00; for `CC(C)(C)[C@@H]1Cc2c(cc(-c3ccn[nH]3)c3c2CCO3)-c2cc(=O)c(C(=O)O)cn21` [Example 82, (S)-5-(tert-butyl)-9-oxo-12-(1H-pyrazol-5-yl)-2,3,4,9-tetrahydro-5H-furo[3,2-f]pyrido[2,1-a]isoquinoline-8-carboxylic Acid], greater than 7.00. For `CC(C)(C)[C@@H]1Cc2c(cc(-c3cnco3)c3c2CCO3)-c2cc(=O)c(C(=O)O)cn21` [Example 83, (S)-5-(tert-butyl)-12-(oxazol-5-yl)-9-oxo-2,3,4,9-tetrahydro-5H-furo[3,2-f]pyrido[2,1-a]isoquinoline-8-carboxylic Acid] the value was greater than 7.00; for `CC(C)(C)[C@@H]1Cc2c(cc(-c3ccc(Cl)cc3)c3c2CCO3)-c2cc(=O)c(C(=O)O)cn21` [Example 84, (S)-5-(tert-butyl)-12-(4-chlorophenyl)-9-oxo-2,3,4,9-tetrahydro-5H-furo[3,2-f]pyrido[2,1-a]isoquinoline-8-carboxylic Acid], less than 6.00; for `CC(C)(C)[C@@H]1Cc2c(cc(-c3cccc(Cl)c3)c3c2CCO3)-c2cc(=O)c(C(=O)O)cn21` [Example 85, (S)-5-(tert-butyl)-12-(3-chlorophenyl)-9-oxo-2,3,4,9-tetrahydro-5H-furo[3,2-f]pyrido[2,1-a]isoquinoline-8-carboxylic Acid], greater than 7.00. The figure for `CC(C)(C)[C@@H]1Cc2c(cc(-c3cn[nH]c3)c3c2CCO3)-c2cc(=O)c(C(=O)O)cn21` [Example 87, (S)-5-(tert-butyl)-9-oxo-12-(1H-pyrazol-4-yl)-2,3,4,9-tetrahydro-5H-furo[3,2-f]pyrido[2,1-a]isoquinoline-8-carboxylic Acid] is greater than 7.00; for `CC(C)(C)[C@@H]1Cc2c(cc(N3CCCC3)c3c2CCO3)-c2cc(=O)c(C(=O)O)cn21` [Example 88, (S)-5-(tert-butyl)-9-oxo-12-(pyrrolidin-1-yl)-2,3,4,9-tetrahydro-5H-furo[3,2-f]pyrido[2,1-a]isoquinoline-8-carboxylic Acid] it is greater than 7.00. Take `CC(C)[C@@H]1Cc2c(cc(-c3ccc(F)cc3)c3c2CCO3)-c2cc(=O)c(C(=O)O)cn21` [Example 89, (S)-12-(4-fluorophenyl)-5-isopropyl-9-oxo-2,3,4,9-tetrahydro-5H-furo[3,2-f]pyrido[2,1-a]isoquinoline-8-carboxylic Acid]: the pEC50 was greater than 7.00.

Consider `CC(C)[C@@H]1Cc2c(cc(-c3ccoc3)c3c2CCO3)-c2cc(=O)c(C(=O)O)cn21` [Example 90, (S)-12-(furan-3-yl)-5-isopropyl-9-oxo-2,3,4,9-tetrahydro-5H-furo[3,2-f]pyrido[2,1-a]isoquinoline-8-carboxylic Acid], for which the pEC50 was greater than 7.00. For `CC(C)[C@@H]1Cc2c(cc(-c3cnco3)c3c2CCO3)-c2cc(=O)c(C(=O)O)cn21` [Example 91, (S)-5-isopropyl-12-(oxazol-5-yl)-9-oxo-2,3,4,9-tetrahydro-5H-furo[3,2-f]pyrido[2,1-a]isoquinoline-8-carboxylic Acid] the value was greater than 7.00.

With `COc1cccc(-c2cc3c(c4c2OCC4)C[C@@H](C(C)C)n2cc(C(=O)O)c(=O)cc2-3)c1` [Example 92, (S)-5-isopropyl-12-(3-methoxyphenyl)-9-oxo-2,3,4,9-tetrahydro-5H-furo[3,2-f]pyrido[2,1-a]isoquinoline-8-carboxylic Acid], the pEC50 was greater than 7.00. The figure for `CC(C)[C@@H]1Cc2c(cc(-c3ccccc3)c3c2CCO3)-c2cc(=O)c(C(=O)O)cn21` [Example 93, (S)-5-isopropyl-9-oxo-12-phenyl-2,3,4,9-tetrahydro-5H-furo[3,2-f]pyrido[2,1-a]isoquinoline-8-carboxylic Acid] is greater than 7.00. As to `CC(C)[C@@H]1Cc2c(cc(-c3ccc(C(F)(F)F)cc3)c3c2CCO3)-c2cc(=O)c(C(=O)O)cn21` [Example 94, (S)-5-isopropyl-9-oxo-12-(4-(trifluoromethyl)phenyl)-2,3,4,9-tetrahydro-5H-furo[3,2-f]pyrido[2,1-a]isoquinoline-8-carboxylic Acid], the pEC50 is less than 6.00. As to `CC(C)[C@@H]1Cc2c(cc(-c3cccc(C(F)(F)F)c3)c3c2CCO3)-c2cc(=O)c(C(=O)O)cn21` [Example 95, (S)-5-isopropyl-9-oxo-12-(3-(trifluoromethyl)phenyl)-2,3,4,9-tetrahydro-5H-furo[3,2-f]pyrido[2,1-a]isoquinoline-8-carboxylic Acid], the pEC50 was less than 6.00. On to `CC(C)[C@@H]1Cc2c(cc(-c3ccnn3C)c3c2CCO3)-c2cc(=O)c(C(=O)O)cn21` [Example 96, (S)-5-isopropyl-12-(1-methyl-1H-pyrazol-5-yl)-9-oxo-2,3,4,9-tetrahydro-5H-furo[3,2-f]pyrido[2,1-a]isoquinoline-8-carboxylic Acid], for which the pEC50 was greater than 7.00. For `CC(C)[C@@H]1Cc2c(cc(-c3cnn(C)c3)c3c2CCO3)-c2cc(=O)c(C(=O)O)cn21` [Example 97, (S)-5-isopropyl-12-(1-methyl-1H-pyrazol-4-yl)-9-oxo-2,3,4,9-tetrahydro-5H-furo[3,2-f]pyrido[2,1-a]isoquinoline-8-carboxylic Acid] the value was greater than 7.00.

One may read the pEC50 as −log10 of the EC50, conventionally taken in molar units. Lower therefore signals a high EC50.

These data come from patent US11058678B2 (Enanta Pharmaceuticals, Inc., priority 2018, dated 2021).
